# Earlier results in publication PMC7887855 (ACS Pharmacology & Translational Science, 2020).
# Tested on: Mtb
# Conditions: multiple daily IP injections, mice
structure (smiles),measurement,value
"C=Cc1c2[n-]c(c1C)/C=c1\[n-]/c(c(C)c1C=C)=C\c1[n-]c(c(CCC(=O)O)c1C)C=c1[n-]/c(c(C)c1CCC(=O)O)=C\2.[Sn+4] [SnPPIX, tin protoporphyrin IX]",effect on mycobacterial load as monotherapy,significantly decrease mycobacterial load
same,effect on treatment time in combination with conventional TB antibiotics,reduced treatment time by over one month
